According to article PMC9007350, “Aurintricarboxylic acid is a canonical disruptor of the TAZ-TEAD transcriptional complex” (PLoS ONE, 2022):

Biological target: T1, TAZ-TEAD complex (human TAZ (23-57) probe, human TEAD4 (217-434)) (Homo sapiens, UniProt Q15561)
T1 construct: made in house
Test: TAZ-TEAD fluorescence polarization assay
Assay type: binding
Conditions: comparison with ATA, S2 Fig
Procedure: Human YAP (61–100), human TAZ (23–57) and mouse Vgll1 (26–51) peptide probes were used; all the probes had carboxyfluorescein labels. Human TEAD4 (217–434) was used in the assay at a concentration of 350 nM and the peptide probe concentration was 25 nM. Disruptors were titrated at concentrations ranging from 0–150 μM to the probe-TEAD complex, and the mixtures were incubated at 25°C for 20 min. Then, polarization measurements were taken using a Victor3 (PerkinElmer) plate reader.

T1 sequence (Q15561 217-434, one chain of several): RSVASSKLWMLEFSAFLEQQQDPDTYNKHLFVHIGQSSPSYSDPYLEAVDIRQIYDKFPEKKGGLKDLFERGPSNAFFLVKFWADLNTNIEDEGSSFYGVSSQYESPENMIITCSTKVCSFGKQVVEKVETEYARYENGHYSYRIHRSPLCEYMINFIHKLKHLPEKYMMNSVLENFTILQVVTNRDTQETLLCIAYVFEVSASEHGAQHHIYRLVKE

## verteporfin
  effect in the TAZ-TEAD FP assay (in words): did not display an effect
